Source: patent US20260007133A1, “HERBICIDAL COMPOSITION COMPRISING AZINE COMPOUNDS” (BASF SE, priority 2022, published 2026)
Where two headings read alike, the source gives them in different places.

Key:
Format in all cases: in vivo
Abutilon theophrasti = experiment: Greenhouse pre-emergence (PRE) herbicidal test on ABUTH; details: Abutilon theophrasti, pre-emergence
In short: (§1)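 Visual 0–100 rating at 20 days after treatment; 0 = normal growth, 100 = no emergence or complete kill of shoots. Pre-emergent application to seeded pots of loamy sand (~3.0% humus), species-dependent temperature 10-25° C or 20-35° C.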

Alopecurus myosuroides = experiment: Greenhouse pre-emergence (PRE) herbicidal test on ALOMY
In short: as §1

Ambrosia artemisiifolia = experiment: Greenhouse pre-emergence (PRE) herbicidal test on AMBEL; details: Ambrosia artemisiifolia, pre-emergence; for inhibition at 4 g/ha: use rate 4 gai/ha; for inhibition at 8 g/ha: use rate 8 gai/ha
Avena fatua = experiment: Greenhouse pre-emergence (PRE) herbicidal test on AVEFA; details: use rate 8 gai/ha
In short: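 Damage was rated visually on a 0 to 100 scale at 20 days after treatment, where 0 meant normal growth and 100 meant no emergence or complete kill of above-ground parts. Compounds were applied in water to freshly sown loamy-sand pots.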

Echinochloa crus-galli = experiment: Greenhouse pre-emergence (PRE) herbicidal test on ECHCG; details: Echinochloa crus-galli, pre-emergence, PRE
Euphorbia heterophylla = experiment: Greenhouse pre-emergence (PRE) herbicidal test on EPHHL; details: Euphorbia heterophylla, pre-emergence
In short: as §1

Polygonum convolvulus = experiment: Greenhouse pre-emergence (PRE) herbicidal test on POLCO; details: Fallopia convolvulus, pre-emergence, use rate 8 gai/ha
Excerpt: The culture containers used were plastic pots containing loamy sand with approximately 3.0% of humus as substrate. The seeds of the test plants were sown separately for each species.
For the pre-emergence treatment, the active compounds, suspended or emulsified in water, were applied directly after sowing by means of finely distributing nozzles. The containers were irrigated gently to promote germination and growth and subsequently covered with transparent plastic hoods until the plants had rooted. This cover caused uniform germination of the test plants unless this was adversely affected by the active compounds.
Depending on the species, the plants were kept at 10-25° C. and 20-35° C., respectively.
The test period extended over 2 to 4 weeks. During this time, the plants were tended and their response to the individual treatments was evaluated.
Evaluation was carried out using a scale from 0 to 100. 100 means no emergence of the plants, or complete destruction of at least the above-ground parts, and 0 means no damage or normal course of growth. A good herbicidal activity is given at values of at least 70, and very good herbicidal activity is given at values of at least 85.
If not stated differently, the respective components A and B, and if appropriate, C were formulated as a 5% by weight strength emulsion concentrate and, with addition of the amount of solvent system, introduced into the spray liquor used for applying the active compound.
As indicated application was either post emergent (POST) at the respective growth stage (GS) of the weed (BBCH code), or pre-emergent (PRE).
Assessment was 20 days after treatment (DAT).

Commelina benghalensis = experiment: Greenhouse post-emergence (POST) herbicidal test on COMBE; details: 480 h, use rate 4 gai/ha, 20 DAT
In short: (§2)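 Injury was rated visually on a 0–100 scale, where 0 is normal growth and 100 is complete above-ground kill, 20 days after treatment. Test plants at 3–15 cm height received a post-emergence spray of water-dispersed active from 5% emulsion concentrates. Pots held loamy sand with ~3.0% humus, at 10-25 °C or 20-35 °C depending on species.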

Geranium pusillum = experiment: Greenhouse post-emergence (POST) herbicidal test on GERPU; details: Geranium pusillum, post-emergence; for inhibition at 2 g/ha: use rate 2 gai/ha, read-out: % activity
In short: as §2

Setaria viridis = experiment: Greenhouse post-emergence (POST) herbicidal test on SETVI; details: 480 h, 20 DAT
In short: as §2

AMAPA [1] = experiment: Greenhouse pre-emergence (PRE) herbicidal test on AMAPA; details: pre-emergence; for inhibition at 8 g/ha: use rate 8 gai/ha
AMAPA [2] = experiment: Greenhouse post-emergence (POST) herbicidal test on AMAPA; details: post-emergence, 480 h, use rate 2 gai/ha, 20 DAT
[3] = 240 h, use rate 4 gai/ha, 10 DAT
[4] = 240 h, use rate 16 gai/ha, 10 DAT

`COc1c(Br)cc(F)c(F)c1Nc1nc(N)nc(C(C)(C)F)n1` [Compound I-2] gave a pest or weed control at 2 g/ha (Abutilon theophrasti; 432 h, PRE, ABUTH, I-2 solo 2 gai/ha, 18 DAT) of 30%, a pest or weed control at 8 g/ha (Abutilon theophrasti; 432 h, PRE, ABUTH, I-2 solo 8 gai/ha, 18 DAT) of 50% and an inhibition at 8 g/ha (Abutilon theophrasti; 480 h, ABUTH PRE, 20 DAT, use rate 8 gai/ha, read-out: % activity) of 65%. For the same molecule, the pest or weed control at 2 g/ha (Abutilon theophrasti; 480 h, PRE, 2 gai/ha, 20 DAT) was 10%, the pest or weed control at 8 g/ha (Abutilon theophrasti; 480 h, PRE, 8 gai/ha, 20 DAT) was 65% and the inhibition at 2 g/ha (Abutilon theophrasti; 480 h, PRE, ABUTH, 2 gai/ha, 20 DAT, read-out: % activity solo application) was 10%. It also gave an inhibition at 8 g/ha (Abutilon theophrasti; 480 h, PRE, ABUTH, 8 gai/ha, 20 DAT, read-out: % activity solo application) of 55%, an inhibition at 8 g/ha (Abutilon theophrasti; 480 h, PRE, ABUTH, use rate 8 gai/ha, 20 DAT, read-out: solo application % activity) of 55% and an inhibition at 2 g/ha (Abutilon theophrasti; ABUTH PRE, use rate 2 gai/ha, read-out: % activity) of 20%. The inhibition at 2 g/ha (Abutilon theophrasti; PRE, ABUTH, use rate 2 gai/ha, read-out: % activity) was 20%, the “% activity” value (Alopecurus myosuroides; ALOMY PRE, use rate 8 gai/ha) was 85% and the pest or weed control at 2 g/ha (Alopecurus myosuroides; Alopecurus myosuroides, pre-emergence, 432 h, PRE, ALOMY, I-2 solo 2 gai/ha, 18 DAT, read-out: % activity) was 5%. For the same molecule, the pest or weed control at 8 g/ha (Alopecurus myosuroides; Alopecurus myosuroides, pre-emergence, 432 h, PRE, ALOMY, I-2 solo 8 gai/ha, 18 DAT) was 75%, the pest or weed control at 8 g/ha (Alopecurus myosuroides; Alopecurus myosuroides, pre-emergence, 480 h, PRE, 8 gai/ha, 20 DAT) was 5% and the inhibition at 2 g/ha (Alopecurus myosuroides; Alopecurus myosuroides, pre-emergence, 480 h, PRE, ALOMY, 2 gai/ha, 20 DAT, read-out: % activity solo application) was 20%. For the same molecule, the inhibition at 8 g/ha (Alopecurus myosuroides; Alopecurus myosuroides, pre-emergence, 480 h, PRE, ALOMY, 8 gai/ha, 20 DAT, read-out: % activity solo application) was 75%, the inhibition at 8 g/ha (Alopecurus myosuroides; Alopecurus myosuroides, pre-emergence, 480 h, PRE, ALOMY, use rate 8 gai/ha, 20 DAT, read-out: solo application % activity) was 75% and the inhibition at 16 g/ha (Alopecurus myosuroides; Alopecurus myosuroides, pre-emergence, 480 h, PRE, ALOMY, use rate 16 gai/ha, 20 DAT) was 95%. The inhibition at 2 g/ha (Alopecurus myosuroides; Alopecurus myosuroides, pre-emergence, 480 h, PRE, use rate 2 gai/ha, 20 DAT, read-out: % activity) was 40%, the inhibition at 8 g/ha (Alopecurus myosuroides; Alopecurus myosuroides, pre-emergence, ALOMY PRE, use rate 8 gai/ha, read-out: % activity) was 70% and the inhibition at 2 g/ha (Alopecurus myosuroides; Alopecurus myosuroides, pre-emergence, PRE, ALOMY, use rate 2 gai/ha, read-out: % activity) was 20%. The inhibition at 2 g/ha (Ambrosia artemisiifolia; 240 h, PRE, use rate 2 gai/ha, 10 DAT, read-out: % activity) was 20%, the inhibition at 4 g/ha (Ambrosia artemisiifolia; 240 h, PRE, 10 DAT) was 20% and the inhibition at 8 g/ha (Ambrosia artemisiifolia; 240 h, PRE, 10 DAT, read-out: % activity) was 35%. For the same molecule, the inhibition at 16 g/ha (Ambrosia artemisiifolia; 240 h, PRE, use rate 16 gai/ha, 10 DAT) was 50%, the pest or weed control at 8 g/ha (Ambrosia artemisiifolia; 432 h, PRE, AMBEL, I-2 solo 8 gai/ha, 18 DAT) was 70% and the inhibition at 2 g/ha (Ambrosia artemisiifolia; 480 h, AMBEL PRE, 20 DAT, use rate 2 gai/ha, read-out: % activity) was 35%. For the same molecule, the inhibition at 8 g/ha (Ambrosia artemisiifolia; 480 h, AMBEL PRE, 20 DAT, read-out: % activity) was 90%, the pest or weed control at 8 g/ha (Ambrosia artemisiifolia; 480 h, PRE, 8 gai/ha, 20 DAT) was 90% and the inhibition at 2 g/ha (Ambrosia artemisiifolia; 480 h, PRE, AMBEL, 2 gai/ha, 20 DAT, read-out: % activity solo application) was 0%. It also gave an inhibition at 2 g/ha (Ambrosia artemisiifolia; 480 h, PRE, AMBEL, use rate 2 gai/ha, 20 DAT, read-out: solo application % activity) of 0%, an inhibition at 8 g/ha (Ambrosia artemisiifolia; 480 h, PRE, 20 DAT, read-out: % activity) of 80% and an inhibition at 2 g/ha (Ambrosia artemisiifolia; AMBEL PRE, use rate 2 gai/ha, read-out: % activity) of 30%. It also gave an inhibition at 4 g/ha (Ambrosia artemisiifolia; PRE, AMBEL) of 20%, an inhibition at 8 g/ha (Avena fatua) of 50% and an inhibition at 4 g/ha (Echinochloa crus-galli; [3]) of 20%. The inhibition at 8 g/ha (Echinochloa crus-galli; 240 h, use rate 8 gai/ha, 10 DAT, read-out: % activity) was 20%, the inhibition at 16 g/ha (Echinochloa crus-galli; [4]) was 25% and the pest or weed control at 2 g/ha (Echinochloa crus-galli; 432 h, ECHCG, I-2 solo 2 gai/ha, 18 DAT) was 10%. The pest or weed control at 8 g/ha (Echinochloa crus-galli; 432 h, ECHCG, I-2 solo 8 gai/ha, 18 DAT) was 25%, the inhibition at 2 g/ha (Echinochloa crus-galli; 480 h, ECHCG, 2 gai/ha, 20 DAT, read-out: % activity solo application) was 0% and the inhibition at 8 g/ha (Echinochloa crus-galli; 480 h, ECHCG, 8 gai/ha, 20 DAT, read-out: % activity solo application) was 90%. It also gave an inhibition at 2 g/ha (Echinochloa crus-galli; 480 h, ECHCG, use rate 2 gai/ha, 20 DAT, read-out: solo application % activity) of 0%, an inhibition at 8 g/ha (Echinochloa crus-galli; 480 h, ECHCG, use rate 8 gai/ha, 20 DAT, read-out: solo application % activity) of 90% and a pest or weed control at 2 g/ha (Echinochloa crus-galli; 480 h, 2 gai/ha, 20 DAT) of 55%. It also gave a pest or weed control at 2 g/ha (Euphorbia heterophylla; 432 h, PRE, EPHHL, I-2 solo 2 gai/ha, 18 DAT) of 10%, a pest or weed control at 8 g/ha (Euphorbia heterophylla; 432 h, PRE, EPHHL, I-2 solo 8 gai/ha, 18 DAT) of 35% and an inhibition at 8 g/ha (Euphorbia heterophylla; 480 h, EPHHL PRE, 20 DAT, use rate 8 gai/ha, read-out: % activity) of 10%. For the same molecule, the pest or weed control at 2 g/ha (Euphorbia heterophylla; 480 h, PRE, 2 gai/ha, 20 DAT) was 10%, the pest or weed control at 8 g/ha (Euphorbia heterophylla; 480 h, PRE, 8 gai/ha, 20 DAT) was 10% and the inhibition at 2 g/ha (Euphorbia heterophylla; 480 h, PRE, EPHHL, 2 gai/ha, 20 DAT, read-out: % activity solo application) was 0%. It also gave an inhibition at 8 g/ha (Euphorbia heterophylla; 480 h, PRE, EPHHL, 8 gai/ha, 20 DAT, read-out: % activity solo application) of 15%, an inhibition at 2 g/ha (Euphorbia heterophylla; 480 h, PRE, EPHHL, use rate 2 gai/ha, 20 DAT, read-out: solo application % activity) of 0% and an inhibition at 8 g/ha (Euphorbia heterophylla; 480 h, PRE, EPHHL, use rate 8 gai/ha, 20 DAT, read-out: solo application % activity) of 15%. It also gave an inhibition at 8 g/ha (Polygonum convolvulus) of 80%, an inhibition at 4 g/ha (Commelina benghalensis) of 0% and a pest or weed control at 2 g/ha (Geranium pusillum; 432 h, POST, GERPU, I-2 solo 2 gai/ha, 18 DAT) of 40%. For the same molecule, the pest or weed control at 8 g/ha (Geranium pusillum; 432 h, POST, GERPU, I-2 solo 8 gai/ha, 18 DAT) was 50%, the inhibition at 2 g/ha (Geranium pusillum; 480 h, GERPU POST, 20 DAT) was 20% and the pest or weed control at 2 g/ha (Geranium pusillum; 480 h, POST, 2 gai/ha, 20 DAT) was 20%. It also gave a pest or weed control at 8 g/ha (Geranium pusillum; 480 h, POST, 8 gai/ha, 20 DAT) of 25%, an inhibition at 2 g/ha (Geranium pusillum; POST, GERPU) of 30% and an inhibition at 4 g/ha (Setaria viridis; use rate 4 gai/ha) of 20%. It also gave an inhibition at 8 g/ha (Setaria viridis; use rate 8 gai/ha) of 25%, an inhibition at 4 g/ha (AMAPA [1]; [3]) of 40% and an inhibition at 8 g/ha (AMAPA [1]; 240 h, 10 DAT) of 70%. It also gave an inhibition at 16 g/ha (AMAPA [1]; [4]) of 75%, an inhibition at 2 g/ha (AMAPA [1]; 480 h, use rate 2 gai/ha, 20 DAT) of 40% and an inhibition at 8 g/ha (AMAPA [1]; 480 h, 20 DAT) of 75%. For the same molecule, the inhibition at 2 g/ha (AMAPA [2]) was 30%.
